Test system: fungal tyrosinase
Test: in vitro inhibition of the activity of fungal tyrosinase (absorbance at 475 nm)
Assay type: biochemical
Details: for molar concentration for which an inhibition value of 25% is observed: compound dissolved in ethanol, phosphate buffer, L-tyrosine and L-Dopa substrates, OD 475 nm
Procedure: This test involves in measuring the absorbance (optical density OD) at 475 nm as a function of time for the hydroquinone dissolved (at various concentrations) in ethanol in the presence of a phosphate buffer, 1 ml of L-tyrosine at 2.0×10^−3 M in a phosphate buffer, 0.1 ml of L-Dopa at 1.0×10^−4 M in a phosphate buffer and 50 μl of a solution of fungal tyrosinase at 1 g/l in a phosphate buffer, compared with a control consisting of ethanol (solvent) used at the same concentration in the phosphate buffer.
The percentage of inhibition is determined by the following equation: [formula]
The molar concentration of hydroquinone for which an inhibition value of 25% is observed is then determined.
The test described in Example 1 above is used, except that N-ethyloxycarbonyl-4-para-aminophenol was substituted for N-cholesteryloxycarbonyl-4-para-aminophenol.

| inhibition of tyrosinase (compound alone at C2=6.77×10^−5 M (solubility limit in DMSO)) | molar concentration for which an inhibition value of 25% is observed [µM] | SMILES |
| --- | --- | --- |
| no inhibition |  | CC(C)CCC[C@@H](C)[C@H]1CC[C@H]2[C@@H]3CC=C4C[C@@H](OC(=O)Nc5ccc(O)cc5)CC[C@]4(C)[C@H]3CC[C@]12C [N-cholesteryloxycarbonyl-4-para-aminophenol] |
|  | 125 | CCOC(=O)Nc1ccc(O)cc1 [N-ethyloxycarbonyl-4-para-aminophenol] |
|  | 80 | Oc1ccc(O)cc1 [hydroquinone] |
